One data set relates to B16F10 cells. On the set-up: method as in PMID 30856375. To be noted: cited from earlier work.
The target of data set [1] is T1, mushroom tyrosinase (Agaricus bisporus, UniProt C7FF04). To be noted: cited from earlier work.
Data set [2] has as its target T1, mushroom tyrosinase. Nature of the data set: Mushroom tyrosinase inhibitory assay with L-dopa as substrate.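 For all read-outs here: enzyme activity followed as absorbance change at 475 nm in phosphate buffer pH 6.8, monitored continuously, IC50 derived from percent inhibition dose–response curves.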 The data set is classed as biochemical. To be noted: for inhibition at 100 µM: read-out: % Inhibition at 100 μM.
Protocol: The mushroom tyrosinase activity assays for the synthetic compounds were conducted using a modified procedure from a previous study. In summary, a 96-well microplate was utilized, and 160 μl of phosphate buffer (50 mM, pH 6.8), 10 μl of mushroom tyrosinase (500 U/ml, dissolved in PBS), and 10 μl of the test compound (dissolved in DMSO) were added to each well. Then, 20 μl of L-dopa (7 mM, dissolved in PBS) was added to initiate the enzymatic reaction. The change in absorbance at 475 nm was continuously monitored using a spectrophotometer. […] The IC50 value, representing the compound’s inhibitory potency, was determined from dose–response curves of percentage inhibition.
The target in data set [3] is T1, mushroom tyrosinase. Briefly: Determination of the inhibition type (Lineweaver–Burk plot analysis).
[4] abbreviates: L-dopa substrate, ± SD, read-out: IC50 ± SD.

Entries after “also recorded” stand apart in the source; their conditions may differ. Read-outs that look alike come from different tables or passages of the source. Bounds are passed on as bounds.

T1 sequence (C7FF04 1-392): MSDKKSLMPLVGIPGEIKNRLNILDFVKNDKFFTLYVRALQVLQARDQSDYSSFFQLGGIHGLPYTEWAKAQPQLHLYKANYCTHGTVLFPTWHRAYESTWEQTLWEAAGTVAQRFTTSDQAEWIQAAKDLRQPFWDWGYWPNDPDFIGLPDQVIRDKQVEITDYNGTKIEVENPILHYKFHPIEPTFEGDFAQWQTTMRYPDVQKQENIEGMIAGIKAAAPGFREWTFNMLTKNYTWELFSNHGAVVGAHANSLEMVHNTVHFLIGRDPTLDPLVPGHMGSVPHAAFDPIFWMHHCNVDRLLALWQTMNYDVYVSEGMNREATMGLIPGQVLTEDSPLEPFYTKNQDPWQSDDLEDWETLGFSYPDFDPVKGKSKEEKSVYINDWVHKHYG

By % inhibition is commonly meant the percentage by which the read-out fell short of the control. Take `CN1CCN(C(=O)/C=C/c2ccc(O)cc2O)CC1` [C]: in the data set on B16F10 cells, the Cellular tyrosinase activity result is reported as “dose-dependently inhibited” and the Melanin content entry was “dose-dependently inhibited”. For the same compound, the “% inhibition” value on mushroom tyrosinase [1] (at 25 μM) is 94.39%.
The term IC50 denotes the point on the concentration scale where inhibition reaches its midpoint. For orientation: inhibition means the relative decrease from the control value, in per cent. By melting point is commonly meant the temperature of the solid-liquid transition. The compound `O=C(OCCN1CCN(c2ccc([N+](=O)[O-])cc2)CC1)c1ccccc1` [Compound 4a, 2-(4-(4-Nitrophenyl)piperazin-1-yl)ethyl benzoate] returned a melting point of 176 to 178 °C. Besides, inhibition against mushroom tyrosinase [2] was half-maximal at 174.7 ± 0.68 µM (IC50). Further, the inhibition at 100 µM at mushroom tyrosinase [2] (100 μM, L-dopa substrate, ± SD) was 35.8 ± 3.24%.
`O=C(OCCN1CCN(c2ccc([N+](=O)[O-])cc2)CC1)c1ccccc1Br` [Compound 4b, 2-(4-(4-Nitrophenyl)piperazin-1-yl)ethyl 2-bromobenzoate] came in with a melting point of 185 to 187 °C. The compound further displayed a half-inhibitory concentration (IC50) against mushroom tyrosinase [2] of over 200 µM. Also, on mushroom tyrosinase [2] (100 μM, L-dopa substrate, ± SD), the inhibition at 100 µM is 20.6 ± 2.58%.
The like results for `O=C(OCCN1CCN(c2ccc([N+](=O)[O-])cc2)CC1)c1ccc(Cl)cc1Cl` [Compound 4c, 2-(4-(4-Nitrophenyl)piperazin-1-yl)ethyl 2,4-dichlorobenzoate] were, in that order, 196 to 198 °C, over 200 µM and 27.9 ± 3.09%.
Compound `O=C(OCCN1CCN(c2ccc([N+](=O)[O-])cc2)CC1)c1ccc([N+](=O)[O-])cc1` [Compound 4d, 2-(4-(4-Nitrophenyl)piperazin-1-yl)ethyl 4-nitrobenzoate] returned a melting point of 172 to 174 °C. Moreover, the inhibition at 100 µM at mushroom tyrosinase [2] (100 μM, L-dopa substrate, ± SD) was found to be 28.3 ± 2.89%. The IC50 on mushroom tyrosinase [2] (setting [4]) was determined as 203.2 ± 1.16 µM.
The like results for `O=C(OCCN1CCN(c2ccc([N+](=O)[O-])cc2)CC1)c1cccc([N+](=O)[O-])c1` [Compound 4e, 2-(4-(4-Nitrophenyl)piperazin-1-yl)ethyl 3-nitrobenzoate] were, in that order, 181 to 183 °C, 24.9 ± 2.81% and over 200 µM.
The like results for `O=C(OCCN1CCN(c2ccc([N+](=O)[O-])cc2)CC1)c1ccc([N+](=O)[O-])cc1Cl` [Compound 4f, 2-(4-(4-Nitrophenyl)piperazin-1-yl)ethyl 2-chloro-4-nitrobenzoate] were, in that order, 203 to 205 °C, 35.1 ± 2.25% and over 200 µM.
In turn, `COc1ccc(CC(=O)OCCN2CCN(c3ccc([N+](=O)[O-])cc3)CC2)cc1` [Compound 4g, 2-(4-(4-Nitrophenyl)piperazin-1-yl)ethyl 2-(4-methoxyphenyl)acetate] showed a melting point of 207 to 209 °C. On mushroom tyrosinase [2], this compound came in with an IC50 of over 200 µM. The inhibition at 100 µM on mushroom tyrosinase [2] (100 μM, L-dopa substrate, ± SD) was 30 ± 4.04%.
In turn, `COc1ccc(C=O)c(C(=O)OCCN2CCN(c3ccc([N+](=O)[O-])cc3)CC2)c1OC` [Compound 4h, 2-(4-(4-Nitrophenyl)piperazin-1-yl)ethyl 6-formyl-2,3-dimethoxybenzoate] came in with a melting point of 176 to 178 °C. On mushroom tyrosinase [2], this compound gave an IC50 of 200.9 ± 1.32 µM. Also, at mushroom tyrosinase [2] (100 μM, L-dopa substrate, ± SD), the inhibition at 100 µM stood at 26.9 ± 3.55%.
For the compound `O=C(Cc1ccccc1)OCCN1CCN(c2ccc([N+](=O)[O-])cc2)CC1` [Compound 4i, 2-(4-(4-Nitrophenyl)piperazin-1-yl)ethyl 2-phenylacetate], the melting point fell in the range of 178 to 180 °C. Besides, on mushroom tyrosinase [2], 184.2 ± 0.88 µM corresponded to half-maximal inhibition (IC50) and the inhibition at 100 µM was 39.4 ± 4.18%.
The compound `O=C(C=Cc1ccccc1)OCCN1CCN(c2ccc([N+](=O)[O-])cc2)CC1` [Compound 4j, 2-(4-(4-Nitrophenyl)piperazin-1-yl)ethyl cinnamate] gave a melting point of 185 to 187 °C. Moreover, at mushroom tyrosinase [2], the IC50 was over 200 µM. In addition, on mushroom tyrosinase [2] (100 μM, L-dopa substrate, ± SD), the inhibition at 100 µM was found to be 23.1 ± 3.6%.
With `O=C(OCCN1CCN(c2ccc([N+](=O)[O-])cc2)CC1)c1cccnc1` [Compound 4k, 2-(4-(4-Nitrophenyl)piperazin-1-yl)ethyl nicotinate], the melting point lay within 168 to 170 °C. This compound also had an IC50 at mushroom tyrosinase [2] of 82.7 ± 1.16 µM. At mushroom tyrosinase [2] (100 μM, L-dopa substrate, ± SD), the inhibition at 100 µM came out at 54.3 ± 4.58%.
One may read the Vmax as the rate approached at saturating substrate. For `O=C(OCCN1CCN(c2ccc([N+](=O)[O-])cc2)CC1)c1cc2ccccc2[nH]1` [Compound 4l, 2-(4-(4-Nitrophenyl)piperazin-1-yl)ethyl 1H-indole-2-carboxylate], the melting point fell in the range of 192 to 194 °C. For the same compound, the Inhibition mode result on mushroom tyrosinase [3] (Lineweaver–Burk plot, L-dopa substrate) was “mixed inhibitor; also recorded: mixed-type inhibition”. In addition, the Vmax at mushroom tyrosinase [3] (inhibitor concentration 10 µM) worked out at 65.79 mM/min. Further, the Vmax on mushroom tyrosinase [3] (inhibitor concentration 40 µM) was found to be 64.10 mM/min. The Vmax at mushroom tyrosinase [3] (inhibitor concentration 100 µM) worked out at 62.89 mM/min. The same compound came in with an IC50 on mushroom tyrosinase [2] of 72.55 ± 0.49 µM. In addition, the inhibition at 100 µM on mushroom tyrosinase [2] (100 μM, L-dopa substrate, ± SD) stood at 66.6 ± 4.12%.
As for `O=C(OCCN1CCN(c2ccc([N+](=O)[O-])cc2)CC1)c1ccc([N+](=O)[O-])o1` [Compound 4m, 2-(4-(4-Nitrophenyl)piperazin-1-yl)ethyl 5-nitrofuran-2-carboxylate], the inhibition at 100 µM on mushroom tyrosinase [2] (100 μM, L-dopa substrate, ± SD) worked out at 43.7 ± 3.18%. In addition, the IC50 on mushroom tyrosinase [2] (setting [4]) came out at 175.3 ± 0.24 µM.
With `COc1ccc(/C=C/C(=O)N2CCN(c3ccc(F)c(Cl)c3)CC2)cc1[N+](=O)[O-]` [D], the IC50 at mushroom tyrosinase [1] was 510 nM.
For `O=C(c1ccccc1C(F)(F)F)N1CCN(Cc2ccc(F)cc2)CC1` [E], the IC50 on mushroom tyrosinase [1] was 480 ± 50 nM.
For the compound `O=C(O)/C=C/c1ccc(O)c(O)c1` [caffeic acid], the Tyrosinase inhibitory potential result at mushroom tyrosinase [1] is “almost inactive”.

The values are drawn from paper PMC10998383, “Nitrophenylpiperazine derivatives as novel tyrosinase inhibitors: design, synthesis, and in silico evaluations” (BMC Chemistry, 2024).
